Where “and” joins values, the source holds several entries; their conditions need not be identical. Identical values can stand only once. Inconclusive results and toxic doses are left out.
Tested on: BDF1 mice, P388 leukemia ip, median survival T/C
Test: NCI In Vivo Anticancer Drug Screen. Data for tumor model P388 Leukemia (intraperitoneal) in B6D2F1 (BDF1) mice
Settings: endpoint: median survival time, higher = longer survival
Outline: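 Transplantable tumour in mice; compound vs vehicle dosing; survival scored; ratio of treated to control reported.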

[1] = dose: 50.0 mg/kg/injection, schedule: Q01DX009 (ip), vehicle: saline with Tween-80
[2] = dose: 100.0 mg/kg/injection, schedule: Q01DX009 (ip), vehicle: saline with Tween-80
[3] = dose: 200.0 mg/kg/injection, schedule: Q01DX009 (ip), vehicle: saline with Tween-80
[4] = dose: 200.0 mg/kg/injection, schedule: Q01DX009 (ip), vehicle: saline

In the case of `Nc1nc(N)c2nc(CNc3ccc(C(=O)NC(CC(=O)O)C(=O)O)cc3)cnc2n1` (stereo not drawn), the T/C (dose: 66.0 mg/kg/injection, schedule: Q04DX003 (ip), vehicle: saline with Tween-80) is reported as 104 % of control and the T/C (dose: 100.0 mg/kg/injection, schedule: Q04DX003 (ip), vehicle: saline with Tween-80) is reported as 100 % of control.

In the case of `Cc1ccc(Nc2c([N+](=O)[O-])c(=O)n(C)c(=O)n2C)cc1C`, the T/C [1] is reported as 103 % of control, the T/C [2] is reported as 96 % of control and the T/C [3] is reported as 96 % of control.

For `CNC(=O)C(C)(C)c1ccccc1`, the T/C (dose: 100.0 mg/kg/injection, schedule: Q01DX009 (ip), vehicle: Klucel (hydroxypropylcellulose) (HPC)) was 90 % of control, the T/C (dose: 200.0 mg/kg/injection, schedule: Q01DX009 (ip), vehicle: Klucel (hydroxypropylcellulose) (HPC)) was 90 % of control and the T/C (dose: 400.0 mg/kg/injection, schedule: Q01DX009 (ip), vehicle: Klucel (hydroxypropylcellulose) (HPC)) was 104 % of control.

In the case of `COc1ccc(C=[N+](C)CCc2ccc(OC)c(OC)c2)cc1OC`, the T/C (dose: 25.0 mg/kg/injection, schedule: Q01DX009 (ip), vehicle: saline) is reported as 95 % of control, the T/C (dose: 50.0 mg/kg/injection, schedule: Q01DX009 (ip), vehicle: saline) is reported as 101 % of control and the T/C (dose: 50.0 mg/kg/injection, schedule: Q04DX003 (ip), vehicle: saline) is reported as 106 % of control. The T/C (dose: 100.0 mg/kg/injection, schedule: Q01DX009 (ip), vehicle: saline) was 100 % of control, the T/C (dose: 100.0 mg/kg/injection, schedule: Q04DX003 (ip), vehicle: saline) was 102 % of control and the T/C [4] was 116 % of control. For the same molecule, the T/C (dose: 200.0 mg/kg/injection, schedule: Q04DX003 (ip), vehicle: saline) was 100 % of control and the T/C (dose: 400.0 mg/kg/injection, schedule: Q04DX003 (ip), vehicle: saline) was 106 % of control.

With `COc1cc2c3c(c1O)C1(C=CC(=O)C=C1)CC3N(C)CC2` (stereo not drawn) the T/C [1] was 112 % of control and the T/C [2] was 115 % of control.

For `C/C=C(\C)C(=O)O[C@@H]1c2cc3c(cc2-c2c(cc(OC)c(OC)c2OC)[C@@H]2C(=O)OC[C@@H]12)OCO3`, the T/C (dose: 1.0 mg/kg/injection, schedule: Q01DX009 (ip), vehicle: saline + alcohol) was 100 % of control, the T/C (dose: 1.3 mg/kg/injection, schedule: Q01DX009 (ip), vehicle: saline) was 90 % of control and the T/C (dose: 2.0 mg/kg/injection, schedule: Q01DX009 (ip), vehicle: saline + alcohol) was 100 % of control. For the same molecule, the T/C (dose: 2.0 mg/kg/injection, schedule: Q01DX009 (ip), vehicle: saline) was 100 % of control, the T/C (dose: 3.0 mg/kg/injection, schedule: Q01DX009 (ip), vehicle: saline) was 100 % of control and the T/C (dose: 4.0 mg/kg/injection, schedule: Q01DX009 (ip), vehicle: saline + alcohol) was 109 % of control. The T/C (dose: 5.3 mg/kg/injection, schedule: Q01DX009 (ip), vehicle: saline with Tween-80) was 110 % of control, the T/C (dose: 7.11 mg/kg/injection, schedule: Q01DX009 (ip), vehicle: saline + alcohol) was 158 % of control and the T/C (dose: 8.0 mg/kg/injection, schedule: Q01DX009 (ip), vehicle: saline + alcohol) was 118 % of control. For the same molecule, the T/C (dose: 8.0 mg/kg/injection, schedule: Q01DX009 (ip), vehicle: saline with Tween-80) was 110 % of control, the T/C (dose: 10.66 mg/kg/injection, schedule: Q01DX009 (ip), vehicle: saline + alcohol) was 95 % of control and the T/C (dose: 12.0 mg/kg/injection, schedule: Q01DX009 (ip), vehicle: saline with Tween-80) was 110 % of control. The T/C (dose: 16.0 mg/kg/injection, schedule: Q01DX009 (ip), vehicle: saline + alcohol) was 91 % of control, the T/C (dose: 21.4 mg/kg/injection, schedule: Q01DX009 (ip), vehicle: saline) was 110 % of control and the T/C (dose: 24.0 mg/kg/injection, schedule: Q01DX009 (ip), vehicle: saline + alcohol) was 100 % of control. The T/C (dose: 32.0 mg/kg/injection, schedule: Q01DX009 (ip), vehicle: saline) was 115 % of control, the T/C (dose: 48.0 mg/kg/injection, schedule: Q01DX009 (ip), vehicle: saline) was 100 % of control and 120 % of control and the T/C (dose: 72.0 mg/kg/injection, schedule: Q01DX009 (ip), vehicle: saline) was 113 % of control. For the same molecule, the T/C (dose: 88.0 mg/kg/injection, schedule: Q01DX009 (ip), vehicle: saline) was 95 % of control, the T/C (dose: 108.0 mg/kg/injection, schedule: Q01DX009 (ip), vehicle: saline) was 95 % of control and the T/C (dose: 133.0 mg/kg/injection, schedule: Q01DX009 (ip), vehicle: saline) was 100 % of control. For the same molecule, the T/C [4] was 90 % of control.

With `CCC(=O)N(c1ccccc1)c1ccccc1` the T/C (dose: 75.0 mg/kg/injection, schedule: Q01DX009 (ip), vehicle: saline with Tween-80) was 99 % of control, the T/C (dose: 150.0 mg/kg/injection, schedule: Q01DX009 (ip), vehicle: saline with Tween-80) was 100 % of control and the T/C (dose: 300.0 mg/kg/injection, schedule: Q01DX009 (ip), vehicle: saline with Tween-80) was 108 % of control.

With `CN(C)c1ccc(/C=C/c2ccnc3cc(Cl)ccc23)cc1` the T/C [1] was 118 % of control, the T/C [2] was 100 % of control and the T/C [3] was 93 % of control.

In the case of `Clc1ccc(C2(C3CCNCC3)CCCO2)cc1` (stereo not drawn), the T/C [1] is reported as 106 % of control and the T/C [2] is reported as 90 % of control.
